Read-outs that look alike come from different tables or passages of the source. Non-standard residues stand in square brackets, D forms with d. Residues, ends and D or L forms follow the SMILES beside them. Cha = N[C@@H](CC1CCCCC1)C(=O)O
What was measured:
[1] = test system: DQ3.1; conditions: read-out: PADRE Class II Binding Affinities; Table VIII A
[2] = test system: DR7; conditions: read-out: PADRE Class II Binding Affinities DR7
[3] = test system: DR5; conditions: read-out: PADRE Class II Binding Affinities DR5

| Compound | IC50 [1] | IC50 ([2]; Table VIII A) | IC50 ([3]; Table VIII A) | IC50 [2] | IC50 [3] |
| --- | --- | --- | --- | --- | --- |
| C[C@H](NC(=O)[C@H](C)NC(=O)[C@H](C)NC(=O)[C@H](CC1CCCCC1)NC(=O)[C@H](C)NC(=O)[C@@H](C)N)C(=O)N[C@@H](C)C(=O)N[C@H](C(=O)N[C@@H](Cc1ccccc1)C(=O)N[C@@H](CCCCN)C(=O)N[C@@H](C)C(=O)N[C@@H](C)C(=O)N[C@H](C)C(N)=O)[C@@H](C)O [Peptide 906.33] | 13.4 nM | 43.1 nM | 2.4 nM | – | – |
| CC(C)C[C@H](NC(=O)[C@@H](NC(=O)[C@@H](NC(=O)[C@H](C)NC(=O)[C@H](C)NC(=O)[C@H](C)NC(=O)[C@H](CC1CCCCC1)NC(=O)[C@H](C)NC(=O)[C@@H](C)N)C(C)C)[C@@H](C)O)C(=O)N[C@@H](CCCCN)C(=O)N[C@@H](C)C(=O)N[C@@H](C)C(=O)N[C@H](C)C(N)=O [Peptide 906.26] (H-[dA]A[Cha]AAAVTLKAA[dA]-NH2; N-terminus and C-terminus assumed) | 27.9 nM | 65.8 nM | 3.9 nM | – | – |
| CC(C)C[C@H](NC(=O)[C@@H](NC(=O)[C@H](CCC(=O)O)NC(=O)[C@H](C)NC(=O)[C@H](C)NC(=O)[C@H](C)NC(=O)[C@H](CC1CCCCC1)NC(=O)[C@H](C)NC(=O)[C@@H](C)N)[C@@H](C)O)C(=O)N[C@@H](CCCCN)C(=O)N[C@@H](C)C(=O)N[C@@H](C)C(=O)N[C@H](C)C(N)=O [Peptide 906.24] | 46.6 nM | 373 nM | 11.1 nM | – | – |
| CC(C)C[C@H](NC(=O)[C@@H](NC(=O)[C@H](C)NC(=O)[C@H](Cc1ccccc1)NC(=O)[C@H](C)NC(=O)[C@H](C)NC(=O)[C@H](CC1CCCCC1)NC(=O)[C@H](C)NC(=O)[C@@H](C)N)[C@@H](C)O)C(=O)N[C@@H](CCCCN)C(=O)N[C@@H](C)C(=O)N[C@@H](C)C(=O)N[C@H](C)C(N)=O [Peptide 906.22] (H-[dA]A[Cha]AAFATLKAA[dA]-NH2; N-terminus and C-terminus assumed) | 1880 nM | – | – | 59.4 nM | 3.4 nM |
| CC(C)C[C@H](NC(=O)[C@@H](NC(=O)[C@H](C)NC(=O)[C@H](C)NC(=O)[C@H](C)NC(=O)[C@H](C)NC(=O)[C@H](CC1CCCCC1)NC(=O)[C@H](C)NC(=O)[C@@H](C)N)[C@@H](C)O)C(=O)N[C@@H](CCCCN)C(=O)N[C@@H](C)C(=O)N[C@@H](CCC(N)=O)C(=O)N[C@H](C)C(N)=O [Peptide 906.48] (H-[dA]A[Cha]AAAATLKAQ[dA]-NH2; N-terminus and C-terminus assumed) | 18.4 nM | 96.2 nM | 20 nM | – | – |
| CC(C)C[C@H](NC(=O)[C@@H](NC(=O)[C@H](C)NC(=O)[C@H](C)NC(=O)[C@H](C)NC(=O)[C@H](C)NC(=O)[C@H](CC1CCCCC1)NC(=O)[C@H](C)NC(=O)[C@@H](C)N)[C@@H](C)O)C(=O)N[C@@H](CCCCN)C(=O)N[C@@H](C)C(=O)N[C@H](C(=O)N[C@H](C)C(N)=O)C(C)C [Peptide 906.49] (H-[dA]A[Cha]AAAATLKAV[dA]-NH2; N-terminus and C-terminus assumed) | 14.6 nM | 28.4 nM | 4.5 nM | – | – |
| CC(C)[C@H](NC(=O)[C@@H](NC(=O)[C@H](C)NC(=O)[C@H](C)NC(=O)[C@H](C)NC(=O)[C@H](C)NC(=O)[C@H](CC1CCCCC1)NC(=O)[C@H](C)NC(=O)[C@@H](C)N)[C@@H](C)O)C(=O)N[C@@H](CCCCN)C(=O)N[C@@H](C)C(=O)N[C@@H](C)C(=O)N[C@H](C)C(N)=O [Peptide 906.32] | 26 nM | – | – | 58.1 nM | 4.2 nM |
| CC(C)C[C@H](NC(=O)[C@@H](NC(=O)[C@H](Cc1ccccc1)NC(=O)[C@H](C)NC(=O)[C@H](C)NC(=O)[C@H](C)NC(=O)[C@H](CC1CCCCC1)NC(=O)[C@H](C)NC(=O)[C@@H](C)N)[C@@H](C)O)C(=O)N[C@@H](CCCCN)C(=O)N[C@@H](C)C(=O)N[C@@H](C)C(=O)N[C@H](C)C(N)=O [Peptide 906.27] | 44.1 nM | 65.8 nM | 2.6 nM | – | – |

From patent US6413935B1, “Induction of immune response against desired determinants” (priority 1993, dated 2002)
